Laboratory results from PubChem BioAssay (NCI).
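GI50 is the concentration that inhibits growth by half. The concentration for full growth arrest is given as TGI.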

Tests used:
Test in all cases: inhibition of tumour cell growth, NCI panel, 384-well format
786-0 renal = system: 786-0 renal
A498 renal = system: A498 renal
A549 NSCLC = system: A549 NSCLC
ACHN renal = system: ACHN renal
BT-549 breast = system: BT-549 breast
CAKI-1 renal = system: CAKI-1 renal
CCRF-CEM leukemia = system: CCRF-CEM leukemia
COLO 205 colon = system: COLO 205 colon
DU-145 prostate = system: DU-145 prostate
EKVX NSCLC = system: EKVX NSCLC
HCC-2998 colon = system: HCC-2998 colon
HCT-116 colon = system: HCT-116 colon
HCT-15 colon = system: HCT-15 colon
HL-60(TB) leukemia = system: HL-60(TB) leukemia
HOP-62 NSCLC = system: HOP-62 NSCLC
HOP-92 NSCLC = system: HOP-92 NSCLC
HS 578T breast = system: HS 578T breast
HT29 colon = system: HT29 colon
IGROV1 ovarian = system: IGROV1 ovarian
K-562 leukemia = system: K-562 leukemia
KM12 colon = system: KM12 colon
LOX IMVI melanoma = system: LOX IMVI melanoma
M14 melanoma = system: M14 melanoma
MALME-3M melanoma = system: MALME-3M melanoma
MCF7 breast = system: MCF7 breast
MDA-MB-231 breast = system: MDA-MB-231 breast
MDA-MB-435 melanoma = system: MDA-MB-435 melanoma
MDA-MB-468 breast = system: MDA-MB-468 breast
MOLT-4 leukemia = system: MOLT-4 leukemia
NCI-H226 lung = system: NCI-H226 lung
NCI-H23 lung = system: NCI-H23 lung
NCI-H322M lung = system: NCI-H322M lung
NCI-H460 NSCLC = system: NCI-H460 NSCLC
NCI/ADR-RES ovarian = system: NCI/ADR-RES ovarian
OVCAR-3 ovarian = system: OVCAR-3 ovarian
OVCAR-4 ovarian = system: OVCAR-4 ovarian
OVCAR-5 ovarian = system: OVCAR-5 ovarian
OVCAR-8 ovarian = system: OVCAR-8 ovarian
PC-3 prostate = system: PC-3 prostate
RPMI-8226 leukemia = system: RPMI-8226 leukemia
RXF 393 renal = system: RXF 393 renal
SF-268 CNS = system: SF-268 CNS
SF-295 CNS = system: SF-295 CNS
SF-539 CNS = system: SF-539 CNS
SK-MEL-2 melanoma = system: SK-MEL-2 melanoma
SK-MEL-28 melanoma = system: SK-MEL-28 melanoma
SK-MEL-5 melanoma = system: SK-MEL-5 melanoma
SK-OV-3 ovarian = system: SK-OV-3 ovarian
SN12C renal = system: SN12C renal
SNB-19 CNS = system: SNB-19 CNS
SNB-75 CNS = system: SNB-75 CNS
SW-620 colon = system: SW-620 colon
T-47D breast = system: T-47D breast
TK-10 renal = system: TK-10 renal
U251 glioblastoma = system: U251 glioblastoma
UACC-257 melanoma = system: UACC-257 melanoma
UACC-62 melanoma = system: UACC-62 melanoma
UO-31 renal = system: UO-31 renal

`CC(C)c1cnc(-c2cc(Cl)ccc2F)cc1Nc1ccncc1C(=O)NC(CO)CO` was tested, and the GI50 ([…]-0 renal) was 9.73 µM, the TGI (786-0 renal) was 21.5 µM and the GI50 (A498 renal) was 2.33 µM. For the same molecule, the TGI (A498 renal) was 16.1 µM, the GI50 (A549 NSCLC) was 2.22 µM and the TGI (A549 NSCLC) was 15 µM. The GI50 (ACHN renal) was 2.34 µM, the TGI (ACHN renal) was 15.3 µM and the GI50 (BT-549 breast) was 0.383 µM. It also gave a TGI (BT-549 breast) of 3.2 µM, a GI50 (CAKI-1 renal) of 10.4 µM and a TGI (CAKI-1 renal) of 22.1 µM. For the same molecule, the GI50 (CCRF-CEM leukemia) was 5.22 µM, the TGI (CCRF-CEM leukemia) was 17.1 µM and the GI50 (COLO 205 colon) was 2.56 µM. The TGI (COLO 205 colon) was 14 µM, the GI50 (DU-145 prostate) was 11.5 µM and the TGI (DU-145 prostate) was 23.7 µM. For the same molecule, the GI50 (EKVX NSCLC) was 2.57 µM, the TGI (EKVX NSCLC) was 16.8 µM and the GI50 (HCC-2998 colon) was 15.9 µM. It also gave a TGI (HCC-2998 colon) of 29.4 µM, a GI50 (HCT-116 colon) of 10.7 µM and a TGI (HCT-116 colon) of 22.6 µM. It also gave a GI50 (HCT-15 colon) of 12.7 µM, a TGI (HCT-15 colon) of 25.3 µM and a GI50 (HL-60(TB) leukemia) of 0.263 µM. It also gave a TGI (HL-60(TB) leukemia) of 1.57 µM, a GI50 (HOP-62 NSCLC) of 10.6 µM and a TGI (HOP-62 NSCLC) of 22.4 µM. It also gave a GI50 (HOP-92 NSCLC) of 6.81 µM, a TGI (HOP-92 NSCLC) of 19.8 µM and a GI50 (HS 578T breast) of 10.5 µM. For the same molecule, the TGI (HS 578T breast) was 22.3 µM, the GI50 (HT29 colon) was 13.3 µM and the TGI (HT29 colon) was 26.1 µM. The GI50 (IGROV1 ovarian) was 13.2 µM, the TGI (IGROV1 ovarian) was 26 µM and the GI50 (K-562 leukemia) was 7.06 µM. It also gave a TGI (K-562 leukemia) of 19.5 µM, a GI50 (KM12 colon) of 2.76 µM and a TGI (KM12 colon) of 15.9 µM. It also gave a GI50 (LOX IMVI melanoma) of 1.1 µM, a TGI (LOX IMVI melanoma) of 2.82 µM and a GI50 (M14 melanoma) of 4.27 µM. For the same molecule, the TGI (M14 melanoma) was 19 µM, the GI50 (MALME-3M melanoma) was 2.14 µM and the TGI (MALME-3M melanoma) was 11.2 µM. The GI50 (MCF7 breast) was 0.124 µM, the TGI (MCF7 breast) was 5.16 µM and the GI50 (MDA-MB-231 breast) was 0.964 µM. The TGI (MDA-MB-231 breast) was 14.5 µM, the GI50 (MDA-MB-435 melanoma) was 9.98 µM and the TGI (MDA-MB-435 melanoma) was 21.6 µM. The GI50 (MDA-MB-468 breast) was 4.51 µM, the TGI (MDA-MB-468 breast) was 15.1 µM and the GI50 (MOLT-4 leukemia) was 5.48 µM. For the same molecule, the TGI (MOLT-4 leukemia) was 17.7 µM, the GI50 (NCI-H226 lung) was 1.2 µM and the TGI (NCI-H226 lung) was 12.2 µM. It also gave a GI50 (NCI-H23 lung) of 0.892 µM, a TGI (NCI-H23 lung) of 9.05 µM and a GI50 (NCI-H322M lung) of 2.01 µM. It also gave a TGI (NCI-H322M lung) of 15.6 µM, a GI50 (NCI-H460 NSCLC) of 12.3 µM and a TGI (NCI-H460 NSCLC) of 24.8 µM. It also gave a GI50 (NCI/ADR-RES ovarian) of 10.8 µM, a TGI (NCI/ADR-RES ovarian) of 22.9 µM and a GI50 (OVCAR-3 ovarian) of 12.8 µM. For the same molecule, the TGI (OVCAR-3 ovarian) was 25.5 µM, the GI50 (OVCAR-4 ovarian) was 0.581 µM and the TGI (OVCAR-4 ovarian) was 2.65 µM. It also gave a GI50 (OVCAR-5 ovarian) of 14.1 µM, a TGI (OVCAR-5 ovarian) of 27.1 µM and a GI50 (OVCAR-8 ovarian) of 1.57 µM. The TGI (OVCAR-8 ovarian) was 5.09 µM, the GI50 (PC-3 prostate) was 2.22 µM and the TGI (PC-3 prostate) was 11.7 µM. The GI50 (RPMI-8226 leukemia) was 0.172 µM, the TGI (RPMI-8226 leukemia) was 2 µM and the GI50 (RXF 393 renal) was 1.36 µM. The TGI (RXF 393 renal) was 9.34 µM, the GI50 (SF-268 CNS) was 3.8 µM and the TGI (SF-268 CNS) was 17.6 µM. For the same molecule, the GI50 (SF-295 CNS) was 5.02 µM, the TGI (SF-295 CNS) was 17.7 µM and the GI50 (SF-539 CNS) was 1.16 µM. The TGI (SF-539 CNS) was 11.6 µM, the GI50 (SK-MEL-2 melanoma) was 20.5 µM and the TGI (SK-MEL-2 melanoma) was 34.8 µM. For the same molecule, the GI50 (SK-MEL-28 melanoma) was 7.17 µM, the TGI (SK-MEL-28 melanoma) was 20.5 µM and the GI50 (SK-MEL-5 melanoma) was 11.6 µM. It also gave a TGI (SK-MEL-5 melanoma) of 23.8 µM, a GI50 (SK-OV-3 ovarian) of 0.832 µM and a TGI (SK-OV-3 ovarian) of 14.2 µM. It also gave a GI50 (SN12C renal) of 11.4 µM, a TGI (SN12C renal) of 23.6 µM and a GI50 (SNB-19 CNS) of 13.1 µM. It also gave a TGI (SNB-19 CNS) of 25.9 µM, a GI50 (SNB-75 CNS) of 12.1 µM and a TGI (SNB-75 CNS) of 24.5 µM. For the same molecule, the GI50 (SW-620 colon) was 5.89 µM, the TGI (SW-620 colon) was 19.5 µM and the GI50 (T-47D breast) was 3.81 µM. It also gave a TGI (T-47D breast) of 17.2 µM, a GI50 (TK-10 renal) of 10.3 µM and a TGI (TK-10 renal) of 22.1 µM. For the same molecule, the GI50 (U251 glioblastoma) was 13.7 µM, the TGI (U251 glioblastoma) was 26.6 µM and the GI50 (UACC-257 melanoma) was 12.5 µM. It also gave a TGI (UACC-257 melanoma) of 25.1 µM, a GI50 (UACC-62 melanoma) of 0.852 µM and a TGI (UACC-62 melanoma) of 18.2 µM. For the same molecule, the GI50 (UO-31 renal) was 12.7 µM and the TGI (UO-31 renal) was 25.4 µM.
